Test results: patent US8815503B2, “Compositions and methods for immunostimulatory RNA oligonucleotides” (Rheinische Friedrich-Wilhelms-Universitat Bonn, priority 2005, dated 2014)

Tested on: PBMC
Assay: IL-12p70 production in PBMC stimulated with complexed RNA oligonucleotides or TLR ligands, ELISA of supernatant after 24 hours
Assay type: cell-based, human
Conditions: TLR ligands at optimal concentrations, RNA complexed with poly-L-arginine
Protocol: FIG. 5: PBMC from three different healthy donors were isolated and stimulated with the following stimuli (form left to right): medium, Poly I:C (10 μg/ml), LPS (1 μg/ml), 3M-001 (1 μM), 3M-007 (1 μM), R848 (5 μg/ml), 3M-002 (1 μM), CpG ODN2216 (3 μg/ml), (the following stimuli were all complexed using poly-L-arginine 88) medium, polyA ssRNA, poly U ssRNA, polyA/U dsRNA, polyc ssRNA, polyG ssRNA, poly C/G dsRNA, 9.1 sense ssRNA, 9.1antisene ssRNA, 9.1duplex dsRNA, 9.2sense ssRNA, 9.2 antisene ssRNA, 9.2duplex dsRNA, 9.3sense ssRNA, 9.3antisene ssRNA and 9.3duplex dsRNA. 24 hours after stimulation supernatants were harvested and analyzed for IL-12p70 (A) and TNF-a (B) production. Data from three individual donors were summarized and depicted as mean values ±SEM. […]

Compound | IL-12p70 production within PBMC
CCCc1nc2c(N)nc3ccccc3c2s1 [3M-002] | able to induce IL-12p70 production
polyC | no activity
polyU | slight yet consistent IL-12 response
CCOCc1nc2c(N)nc3ccccc3c2n1CC(C)(C)O [R848] | able to induce IL-12p70 production
polyA | no activity

Same assay, conditions: TLR ligands at optimal concentrations, RNA complexed with poly-L-arginine, listed as poly adenosine RNA oligonucleotides

Compound | IL-12p70 production within PBMC
polyA | completely inactive

Same assay, conditions: TLR ligands at optimal concentrations, RNA complexed with poly-L-arginine, listed as poly adenosine oligonucleotides

Compound | IL-12p70 production within PBMC
polyA | inactive

Same assay, conditions: donor 1, complexed with poly-L-arginine of approx. 88 amino acids

Compound | IL-12p70 production, absolute value [pg/mL]
5′-AGCUUAACCUGUCCUUCAA-3′ (RNA, backbone not given here) [9.2sense, standard ssRNA oligonucleotide, positive control on all cell culture plates] | 1390

Same assay, conditions: donor 2, complexed with poly-L-arginine of approx. 88 amino acids

Compound | IL-12p70 production, absolute value [pg/mL]
5′-AGCUUAACCUGUCCUUCAA-3′ (RNA, backbone not given here) [9.2sense, standard ssRNA oligonucleotide, positive control on all cell culture plates] | 396

Tested on: PBMC
Assay: 193 ssRNA 4mer-motif library screen: IL-12 (IL-12p40) production in PBMC of six donors, poly-L-Arg complexation, ELISA at 44 hours, IL-12 index and adjusted IL-12 index
Assay type: cell-based, human
Set-up: key to Adjusted IL-12 index Mean: IL-12 index (ratio to 9.2sense) minus donor mean, averaged over 6 donors
Conditions: 193 ssRNA oligonucleotide library; data from six individual donors summarized; ascending order
In short: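 Human PBMC from six healthy donors were stimulated in duplicate with poly-L-arginine-complexed ssRNA oligonucleotides, and IL-12p40 in supernatant was measured by ELISA at 44 h. Each value was divided by the 9.2sense control on the same plate (IL-12 index), then the donor's mean index was subtracted; adjusted indices are means ± SEM over donors.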

Compound | Adjusted IL-12 index Mean
AAAAAAACAAGAAAAAAAA (RNA, backbone not given here) [ANP-Oligo 051] | −0.66
AAAAAAAGAGCAAAAAAAA (RNA, backbone not given here) [ANP-Oligo 104] | −0.61
AAAAAAACUAUAAAAAAAA (RNA, backbone not given here) [ANP-Oligo 088] | 0.3
AAAAAAAUUCCAAAAAAAA (RNA, backbone not given here) [ANP-Oligo 185] | −0.08
AAAAAAAGUAGAAAAAAAA (RNA, backbone not given here) [ANP-Oligo 135] | 0.67
AAAAAAAACGUAAAAAAAA (RNA, backbone not given here) [ANP-Oligo 022] | 0.02
AAAAAAAAGUUAAAAAAAA (RNA, backbone not given here) [ANP-Oligo 037] | 0.21
AAAAAAACCCUAAAAAAAA (RNA, backbone not given here) [ANP-Oligo 067] | −0.3
AAAAAAACGGCAAAAAAAA (RNA, backbone not given here) [ANP-Oligo 080] | −0.65
AAAAAAAGAGUAAAAAAAA (RNA, backbone not given here) [ANP-Oligo 106] | 0.21
AAAAAAACCUGAAAAAAAA (RNA, backbone not given here) [ANP-Oligo 072] | −0.51
AAAAAAAUGCGAAAAAAAA (RNA, backbone not given here) [ANP-Oligo 174] | 0.28
AAAAAAAACCAAAAAAAAA (RNA, backbone not given here) [ANP-Oligo 005] | −0.62
AAAAAAAGGCGAAAAAAAA (RNA, backbone not given here) [ANP-Oligo 126] | −0.54
AAAAAAACGUCAAAAAAAA (RNA, backbone not given here) [ANP-Oligo 083] | −0.27
AAAAAAACGUUAAAAAAAA (RNA, backbone not given here) [ANP-Oligo 085] | 0.57
AAAAAAAUCCCAAAAAAAA (RNA, backbone not given here) [ANP-Oligo 161] | −0.42
AAAAAAACGGUAAAAAAAA (RNA, backbone not given here) [ANP-Oligo 082] | 0.29
AAAAAAAGACCAAAAAAAA (RNA, backbone not given here) [ANP-Oligo 101] | −0.6
AAAAAAAGCAUAAAAAAAA (RNA, backbone not given here) [ANP-Oligo 112] | 0.08
AAAAAAAUUACAAAAAAAA (RNA, backbone not given here) [ANP-Oligo 182] | 0.11

Compound | Adjusted IL-12 index Mean
AAAAAAAUCAUAAAAAAAA (RNA, backbone not given here) [ANP-Oligo 160] | 0.1
AAAAAAAGGCUAAAAAAAA (RNA, backbone not given here) [ANP-Oligo 127] | 0.11
AAAAAAAAGAAAAAAAAAA (RNA, backbone not given here) [ANP-Oligo 003] | −0.63
AAAAAAAGGUCAAAAAAAA (RNA, backbone not given here) [ANP-Oligo 131] | 0.12
AAAAAAAAGCCAAAAAAAA (RNA, backbone not given here) [ANP-Oligo 029] | −0.66
AAAAAAAAUCUAAAAAAAA (RNA, backbone not given here) [ANP-Oligo 043] | −0.22
AAAAAAAUAGUAAAAAAAA (RNA, backbone not given here) [ANP-Oligo 154] | 1.57
AAAAAAAGAAUAAAAAAAA (RNA, backbone not given here) [ANP-Oligo 100] | 0.01
AAAAAAAGACGAAAAAAAA (RNA, backbone not given here) [ANP-Oligo 102] | −0.64
AAAAAAACGCUAAAAAAAA (RNA, backbone not given here) [ANP-Oligo 079] | −0.09
AAAAAAAUUCGAAAAAAAA (RNA, backbone not given here) [ANP-Oligo 186] | −0.08
AAAAAAAUGGCAAAAAAAA (RNA, backbone not given here) [ANP-Oligo 176] | 2.41
AAAAAAAAUGCAAAAAAAA (RNA, backbone not given here) [ANP-Oligo 044] | 0.2
AAAAAAAGGGUAAAAAAAA (RNA, backbone not given here) [ANP-Oligo 130] | −0.44
AAAAAAACACCAAAAAAAA (RNA, backbone not given here) [ANP-Oligo 053] | −0.67
AAAAAAAAGCGAAAAAAAA (RNA, backbone not given here) [ANP-Oligo 030] | −0.6
AAAAAAAGCUCAAAAAAAA (RNA, backbone not given here) [ANP-Oligo 119] | −0.48
AAAAAAACUUUAAAAAAAA (RNA, backbone not given here) [ANP-Oligo 097] | −0.1
AAAAAAAACGCAAAAAAAA (RNA, backbone not given here) [ANP-Oligo 020] | −0.66
AAAAAAACAUCAAAAAAAA (RNA, backbone not given here) [ANP-Oligo 059] | −0.48

Same assay, conditions: donor 3; poly-L-Arg complexed; 44 hours

Compound | IL-12 in supernatant, mean of the two raw values of the duplicates [pg/mL]
5′-AGCUUAACCUGUCCUUCAA-3′ (RNA, backbone not given here) [9.2sense, standard ssRNA oligonucleotide, positive control on all cell culture plates] | 908

Same assay, conditions: summarized from all six donors

Compound | adjusted IL-12 index
AAAAAAAUAGUAAAAAAAA (RNA, backbone not given here) [ANP-Oligo 154] | 1.57
